Results as given in paper PMC12069340 (Frontiers in Cellular and Infection Microbiology, 2025).
Where a name gives a salt, the structure may show the parent alone.

test system: A/PuertoRico/8/1934 (H1N1) virus; experiment: microbe, parasite or virus in culture; format: cell-based, influenza A virus; conditions: 20 µM

Row | Molecule | NA Inhibition (%)
1 | CC(C)N(CCC(c1ccccc1)c1cc(CO)ccc1O)C(C)C (centres unmarked) [5-hydroxymethyl Tolterodine] | 6.5%
2 | O=C(c1ccc(F)cc1)N1CCC[C@H](c2nc(-c3ccc(F)cc3)no2)C1 [ADX-47273] | 34.4%
3 | CN1CCN(c2nc3ccccc3nc2Cl)CC1 [VUF 10166] | 7.6%
4 | Cc1cccc(C#Cc2ccccc2)n1 [MPEP] | 32.6%
5 | CNCC(=O)c1ccc(O)c(O)c1.Cl [Adrenalone HCl] | 6.4%
6 | CN(C)CCC(c1ccc(Br)cc1)c1ccccn1.O=C(O)/C=C\C(=O)O (centres unmarked) [Brompheniramine hydrogen maleate] | 12.4%
7 | O=C(O)CCCN1CCC(O[C@@H](c2ccc(Cl)cc2)c2ccccn2)CC1.O=S(=O)(O)c1ccccc1 [Bepotastine Besilate] | 21.1%
8 | O=C(Nc1cccc(Cl)c1)c1ccccn1 [VU 0364770] | 28.5%
9 | CCCCOc1ccc(C(=O)Nc2ccc(F)cc2F)cc1 [VU 0357121] | 29.7%
10 | CCc1ccc(OCc2ccccc2C(=O)Nc2ccc3nc(C)cc(N)c3c2)cc1 [JTC-801] | 41.4%
11 | CCC1=C[C@@H]2CN3CCc4c([nH]c5ccccc45)[C@@](C(=O)OC)(C2)[C@@H]13 [Catharanthine] | 42.3%
12 | COc1cc(OC)c(NC(=O)Nc2cc(C)on2)cc1Cl [PNU-120596] | -38.3%
13 | CN1[C@@H]2CC(O)C[C@H]1[C@@H]1O[C@@H]12 (some centres unmarked) [Scopine] | -19.4%
14 | OC(CN1CCN(c2cccc(Cl)c2)CC1)C(c1ccccc1)c1ccccc1 (centres unmarked) [BRL-15572] | 24.4%
15 | L-Adrenaline | -38.4
16 | (-)-MK 801 Maleate | 26.1%
17 | Br.Br.NCCCCCNCC12CC3CC(CC(C3)C1)C2 [IEM 1754 dihydrobroMide] | 23.2%
18 | COc1ccc(NS(=O)(=O)c2sc3ccc(Cl)cc3c2C)cc1N1CCNCC1.Cl [SB271046 HCl] | 18.8%
19 | COc1ccccc1N1CCN(CCN(C(=O)C2CCCCC2)c2ccccn2)CC1.O=C(O)/C=C\C(=O)O [WAY-100635 Maleate] | 9.1%
20 | CNCCc1ccccn1.Cl.Cl [Betahistine 2HCl] | 4.8%
21 | CN1CCC(c2c[nH]c3ccc(O)cc23)CC1 [BRL-54443] | 23.6%
22 | CC(C)c1cc(-c2ccc(F)c3ccccc23)nc(N)n1 [RS-127445] | 20.3%
23 | Cc1nc(C#Cc2ccnc(Cl)c2)c(C)n1-c1ccc(OC(F)(F)F)cc1 [CTEP (RO4956371)] | 31.0%
24 | Cc1cccc([C@H](C)c2cnc[nH]2)c1C [Dexmedetomidine] | 21.4
25 | CN1c2ccccc2C(NCCCCCCC(=O)[O-])c2ccc(Cl)cc2S1(=O)=O.[Na+] (centres unmarked) [Tianeptine sodium] | 4.5%
26 | Cl.Cl.NCCc1c[nH]cn1 [Histamine 2HCl] | 2.5
27 | Cc1cncc(CN2CCC(=C3c4ccc(Cl)cc4CCc4cccnc43)CC2)c1.O=C(O)/C=C/C(=O)O [Rupatadine Fumarate] | 22.5%

same assay, conditions: Influenza A virus, H1N1, U-937, 48 h, read-out: NA Inhibition (%)

Row | Molecule | inhibition at 20 µM
28 | C[C@]12N[C@H](Cc3ccccc31)c1ccccc12 [MK-801 (Dizocilpine), Dizocilpine] | 20.9%
29 | O=c1n(CCCN2CCN(c3cccc(Cl)c3)CC2)nc2ccccn12 [Trazodone HCl] | -9.8%
30 | CC(=O)SCC(Cc1ccccc1)C(=O)NCC(=O)OCc1ccccc1 (centres unmarked) [Racecadotril] | -29.5%
31 | CNC[C@H](O)c1cccc(O)c1 [Phenylephrine HCl] | 4.9%
32 | Cc1ccc(O)c([C@H](CCN(C(C)C)C(C)C)c2ccccc2)c1 [Tolterodine tartrate] | -12%
33 | COc1cc(NC(=O)c2ccccn2)ccc1Cl [VU 0361737] | 23.5%
34 | CNC[C@H](O)c1ccc(O)c(O)c1 [Epinephrine HCl] | 7.1%
35 | COCCCN1CCC(NC(=O)c2cc(Cl)c(N)c3c2OCC3)CC1 [Prucalopride] | 20.7%
36 | CC(C)(C(=O)O)c1ccc(C(O)CCCN2CCC(C(O)(c3ccccc3)c3ccccc3)CC2)cc1 (centres unmarked) [Fexofenadine HCl] | -9.9%
37 | CNCCCC12CCC(c3ccccc31)c1ccccc12 [Maprotiline HCl] | -23.2%
38 | COc1cc2c(cc1OC)C(=O)C(CC1CCN(Cc3ccccc3)CC1)C2 (centres unmarked) [Donepezil HCl] | 4.5%
39 | CN1[C@@H]2C[C@@H](OC(=O)[C@H](CO)c3ccccc3)C[C@H]1[C@@H]1O[C@@H]12 [Scopolamine HBr] | -0.4%
40 | CN1CCN(C(=O)c2cc3cc(Cl)ccc3[nH]2)CC1 [JNJ-7777120] | 19.7%
41 | CN(C)CCCN1c2ccccc2CCc2ccc(Cl)cc21 [Clomipramine HCl] | -11.3%
42 | C=CCN1CC[C@]23c4c5ccc(O)c4O[C@H]2C(=O)CC[C@@]3(O)[C@H]1C5 [Naloxone HCl] | 25.4%

same assay, conditions: Influenza A virus, H1N1, U-937, 48 h; read-out: NA Inhibition (%)

Row | Molecule | inhibition at 20 µM
43 | COC(=O)C1=CCCN(C)C1 [Arecoline] | -10.6%
44 | C[N+]1(C)[C@@H]2CC[C@H]1C[C@@H](OC(=O)C(O)c1ccccc1)C2 (some centres unmarked) [Homatropine Methylbromide] | -12%
45 | O=C(O)c1cccnc1Nc1cccc(C(F)(F)F)c1 [Niflumic acid] | 23.7%
46 | O=S(=O)(c1ccccc1)c1cnc2c(N3CCNCC3)cccc2c1 [SB742457] | 16.8%
47 | Cc1cccc(C)c1N=C1NCCCS1 [Xylazine HCl] | -20%
48 | CCCCCCCCOc1ccccc1C(=O)Nc1ccc(C(=O)OCC[N+](C)(CC)CC)cc1 [Otilonium Bromide] | -2.3%
49 | C[N+]1(C)[C@@H]2C[C@@H](OC(=O)C(O)(c3cccs3)c3cccs3)C[C@H]1[C@@H]1O[C@@H]12 [Tiotropium Bromide hydrate] | -34.7%
50 | CC(NCCc1ccc(O)cc1)C(O)c1ccc(O)cc1 (centres unmarked) [Ritodrine HCl] | -20.6%
51 | CC(COc1ccccc1)N(CCCl)Cc1ccccc1 (centres unmarked) [Phenoxybenzamine HCl] | 95.4%
52 | COc1ccccc1N1CCN(CCN2C(=O)CC3(CCCC3)CC2=O)CC1 [BMY 7378] | 23.8%
53 | CC[N+](CC)(CC)CCOc1cccc(OCC[N+](CC)(CC)CC)c1OCC[N+](CC)(CC)CC [Gallamine Triethiodide] | -9%
54 | CN1[C@@H]2CC[C@H]1C[C@@H](OC(=O)C(CO)c1ccccc1)C2 (some centres unmarked) [Atropine] | -5.8%
55 | CCc1cc2c(cc1CC)CC(NC[C@H](O)c1ccc(O)c3[nH]c(=O)ccc13)C2 [Indacaterol Maleate] | -6%
56 | CN1CCC(=C2c3ccccc3C=Cc3ccccc32)CC1 [Cyproheptadine HCl] | 4.6%
57 | CCN(CC)CC(=O)Nc1c(C)cccc1C [Lidocaine] | 5.1%
58 | CN1CCC[C@@H]1Cc1c[nH]c2ccc(CCS(=O)(=O)c3ccccc3)cc12 [Eletriptan HBr] | 20.2%
59 | c1ccc2c(CC3=NCCN3)cccc2c1 [Naphazoline HCl] | -18.7%

test system: not listed separately; experiment: in vitro; conditions: human, Relative Viability (%)

Row | Molecule | viability at 20 µM
60 | CN[C@H]1CC[C@@H](c2ccc(Cl)c(Cl)c2)c2ccccc21 [Sertraline HCl] | 124%
61 | CN1CC2c3ccccc3Oc3ccc(Cl)cc3C2C1 (centres unmarked) [Asenapine] | 87.1%
62 | CN1CCC[C@@H]1CCO[C@](C)(c1ccccc1)c1ccc(Cl)cc1 [Clemastine Fumarate] | 88.5%
